Read-outs that look alike come from different tables or passages of the source.
Experiments:
[1] = Pharmacokinetic test in mice; type: in vivo, ICR mice; conditions: i.g. (10 mg/kg), relative to Control compound 1
[2] = Pharmacokinetic test in mice; type: in vivo, ICR mice; conditions: mouse, plasma; for Vd: read-out: Vdss
Description: 3.1 Experimental animals: Male ICR mice, 20-25 g, 6 mice/compound, purchased from Chengdu Dossy Experimental Animals Co., Ltd.
3.2 Experimental design: On the day of the experiment, the ICR mice were randomly grouped according to their body weights. The animals were fasted with water available for 12-14 h one day before the administration, and were fed 4 h after the administration. Table 3.1 Administration information
vehicle for intravenous administration: 5% DMA + 5% Solutol + 90% Saline; vehicle for intragastric administration: 0.5% MC
Before and after administration, 0.06 mL of blood was taken from the orbit under isoflurane anaesthesia and placed in an EDTAK2 centrifuge tube. The tube was centrifuged at 5000 rpm at 4°C for 10 min, and plasma was collected. The blood sampling time points for both the intravenous administration group and intragastric administration group were 0 min, 5 min, 15 min, 30 min, 1 h, 2 h, 4 h, 7 h, 24 h, and 48 h. Before analysis and detection, all samples were stored at -80°C, and the samples were quantitatively analysed by LC-MS/MS. Table 3.2 Pharmacokinetic parameters of test compounds in plasma of mice

A375 cells = assay: A375 cell proliferation inhibition test; type: cell-based; conditions: Homo sapiens, A-375, 72 h
Description: A375 cells (ATCC, CRL-1619) were cultured in DMEM complete medium (+10% FBS) in a CO2 incubator at 37°C for 48 h. The cells were trypsinised and counted, and then the density was adjusted to 1.67 × 10^4 cells/mL. 90 µL (1500 cells) of cells were inoculated into each well of a 96-well transparent bottom plate, and the plate was transferred to a CO2 incubator and the cells were cultured at 37°C overnight. After the cells were incubated overnight, 10 µL of the diluted compound (final concentration starting from 10 µM, 3-fold dilution, 11 concentrations) was added to each well using a multi-channel pipette. The […] control was a serum-free medium containing DMSO. After mixing evenly, the cells were placed in a CO2 incubator at 37°C for 72 h. After the incubation, the CellCounting-Lite®2.0 kit detection solution (Vazyme, DD1101-03) was taken out and returned to room temperature. 100 µL of CellCounting-Lite2.0 detection solution was added to each well, the plate was sealed with a sealing film, and the plate was placed on a shaker for shaking for 15 min (the whole process should be kept away from light). The Luminescence module of the microplate reader (BMG LRBTECH) was used to detect the fluorescence signal value LUM of each well. The formula Inhibition rate% = ((LUM Solvent−LUM Compound)/(LUM Solvent))∗100% [formula] was used to calculate the inhibition rate of the compound. The Graphpad software log(inhibitor) vs. response -- Variable slope (four parameters) equation was used to perform fitting analysis and calculate the IC50value of the sample. The ordinate of the data is the percentage of inhibition rate, and the abscissa is the logarithm of the sample concentration (Log10).

BRAFV600E = target: T1, BRAFV600E (Homo sapiens, UniProt P15056, V600E); assay: BRAFV600E enzyme activity test (ADP-Glo, MEK1K97R substrate); type: biochemical; conditions: Inhibitory activities of compounds on BRAFV600E
T1 construct: purchased ABCAM ab204154
Description: BRAFV600E (ABCAM, ab204154) and MEK1K97R (USBio, M2865-06J) proteins were diluted at an appropriate dilution factor using 1×Assay buffer (PH = 7.4 Tris-HCl buffer, supplemented with 10 mM MgCl2) such that the final concentration of BRAFV600E was 10 ng/µL and the final concentration of substrate MEK1K97R was 1 µM. 1 µL of BRAFV600E, 1 µL of compound serial dilution (final concentration starting from 2 µM, 5-fold dilution, 8 concentrations), and 6 µL of Assay buffer were pipetted to a 384-well reaction plate with a capacity of 20 µL. The plate was pre-incubated in a constant temperature incubator at 37°C for 30 min. 1 µL of 200 µM ATP and 1 µM MEK1 K97R were added to the reaction wells corresponding to the compound incubation, and mixed evenly by shaking, and preincubation was performed in a constant temperature incubator at 37°C for 60 min for enzymatic reaction. After the reaction was completed, 5 µL of the above reaction product was pipetted to another 384-well plate, and 5 µL of formulated ADP-Glo™ Reagent (Promega, V9101) was added and mixed evenly by pipetting, and then the plate was placed at room temperature for 40 min. 10 µL Kinase Detection Reagent was added to the 384-well plate and incubated at room temperature for 40 min. Finally, a microplate reader (BMG LRBTECH) was used and Luminescence module was selected to detect the LUM fluorescence value of each well (the gain value was fixed at 3600), and the formula Inhibition rate% = (1−(LUM Compound−LUM Background)/(LUM Solvent−LUM Background))∗100% [formula] was used to calculate the inhibition rate of the compound on BRAFV600E. The Graphpad software log(inhibitor) vs. response -- Variable slope (four parameters) equation was used to perform fitting analysis and calculate the IC50value of the sample.

[3] = Inhibitory activities of compounds on A375 cells, read-out: IC50/nM
[4] = A375 cells, values in text, read-out: IC50

T1 sequence (P15056 416-766 V600E limits assumed): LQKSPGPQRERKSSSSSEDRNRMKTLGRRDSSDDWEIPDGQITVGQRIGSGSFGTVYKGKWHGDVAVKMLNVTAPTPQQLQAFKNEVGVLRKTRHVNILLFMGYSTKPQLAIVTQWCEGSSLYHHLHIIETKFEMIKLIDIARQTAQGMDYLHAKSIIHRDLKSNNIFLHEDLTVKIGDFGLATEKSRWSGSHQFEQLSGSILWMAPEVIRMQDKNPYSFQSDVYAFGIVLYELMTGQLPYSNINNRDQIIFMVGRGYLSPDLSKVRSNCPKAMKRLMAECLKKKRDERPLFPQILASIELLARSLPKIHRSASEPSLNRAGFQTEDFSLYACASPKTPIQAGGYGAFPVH

IC50 (A375 cells; [3]) | SMILES | Fold change in brain-blood ratio relative to control compound [1] | AUC(0-t) ([2]; iv, i.v. (2.5 mg/kg)) | clearance ([2]; iv, i.v. (2.5 mg/kg)) | half-life ([2]; iv, i.v. (2.5 mg/kg)) | Vd ([2]; iv, i.v. (2.5 mg/kg)) | bioavailability ([2]; po, i.g. (10 mg/kg)) | AUC(0-t) ([2]; po, i.g. (10 mg/kg)) | half-life ([2]; po, i.g. (10 mg/kg)) | other results
≤ 10 nM | C=C1CN(S(=O)(=O)Nc2ccc(F)c(Oc3ccc4ncn(CC(F)F)c(=O)c4c3)c2C#N)CC1F (centres unmarked) [Compound 21] | – | – | – | – | – | – | – | – | –
10 to 50 nM | CC=C1CN(S(=O)(=O)Nc2ccc(F)c(Oc3ccc4c(c3)C3=NCCN3C=N4)c2C#N)C1 [Compound 22] | – | – | – | – | – | – | – | – | –
≤ 10 nM | C=C1CN(S(=O)(=O)Nc2ccc(F)c(Oc3ccc4ncc(N5CCOCC5)nc4c3)c2C#N)C1 [Compound 23] | – | – | – | – | – | – | – | – | –
10 to 50 nM | N#Cc1c(NS(=O)(=O)N2CC(=CC(F)F)C2)ccc(F)c1Oc1ccc2ncn(CC(F)F)c(=O)c2c1 [Compound 26] | – | – | – | – | – | – | – | – | –
≤ 10 nM | CC=C1CN(S(=O)(=O)Nc2ccc(F)c(Oc3ccc4ncn(C)c(=O)c4c3)c2C#N)C1 [Compound 27] | – | – | – | – | – | – | – | – | –

The remaining lines, values behind:

SMILES | IC50 (A375 cells; [3]) | Fold change in brain-blood ratio relative to control compound [1] | AUC(0-t) ([2]; iv, i.v. (2.5 mg/kg)) | clearance ([2]; iv, i.v. (2.5 mg/kg)) | half-life ([2]; iv, i.v. (2.5 mg/kg)) | Vd ([2]; iv, i.v. (2.5 mg/kg)) | bioavailability ([2]; po, i.g. (10 mg/kg)) | AUC(0-t) ([2]; po, i.g. (10 mg/kg)) | half-life ([2]; po, i.g. (10 mg/kg)) | other results
N#Cc1c(NS(=O)(=O)N2CC(=CF)C2)ccc(F)c1Oc1ccc2ncn(CC(F)F)c(=O)c2c1 [Compound 11] | ≤ 10 nM | 6.1 | 245 µg·h/mL | 0.163 mL/min/kg | 11.1 h | 0.123 L/kg | 98.1% | 962 µg·h/mL | 8.81 h | –
CN(C1CC(=C(F)F)C1)S(=O)(=O)Nc1ccc(F)c(Oc2ccc3ncn(CC(F)F)c(=O)c3c2)c1C#N (centres unmarked) [Compound 12] | 10 to 50 nM | – | – | – | – | – | – | – | – | –
CC=C1CN(S(=O)(=O)Nc2ccc(F)c(Oc3ccc4ncn(CCF)c(=O)c4c3)c2C#N)C1 [Compound 14] | ≤ 10 nM | 3.5 | 268 µg·h/mL | 0.154 mL/min/kg | 9.27 h | 0.098 L/kg | 85.1% | 912 µg·h/mL | 9 h | IC50 (BRAFV600E): ≤ 10 nM; IC50 (A375 cells; [4]): 1.44 nM
CC(F)=C1CN(S(=O)(=O)Nc2ccc(F)c(Oc3ccc4ncn(CC(F)F)c(=O)c4c3)c2C#N)C1 [Compound 24] | ≤ 10 nM | 8.1 | 91.8 µg·h/mL | 0.462 mL/min/kg | 8.1 h | 0.237 L/kg | > 98% | 492 µg·h/mL | 9.83 h | IC50 (BRAFV600E): ≤ 10 nM; IC50 (A375 cells; [4]): 2.16 nM
N#Cc1c(NS(=O)(=O)N2CC(=CC(F)(F)F)C2)ccc(F)c1Oc1ccc2ncn(CC(F)F)c(=O)c2c1 [Compound 25] | 10 to 50 nM | – | – | – | – | – | – | – | – | –

— patent EP4813985A1, “PREPARATION OF QUINAZOLINONE DERIVATIVE AS KINASE INHIBITOR, AND USE THEREOF” (Xizang Haisco Pharmaceutical Co., Ltd., priority 2023, dated 2025)
